The results in this text go back to paper PMC12521527, “In vivo self-assembled nano-PROTAC for the dual degradation of AR and HSP90 to overcome castration-resistant prostate cancer resistance” (Signal Transduction and Targeted Therapy, 2025).

This experiment has as its system 22Rv1 xenograft tumor. Nature of the experiment: Antitumor efficacy in 22Rv1 xenograft mice. It counts as in vivo, BALB/c nude mice. The note with it: comparison study, n = 6; for tumor volume: 20 days, Psa-AR 30 mg/kg i.v. every 2 days x5, enzalutamide 25 mg/kg, pimitespib 15 mg/kg, PBS 1017 mm^3; for median survival: PBS 21 days. From the text: To evaluate the therapeutic potential and superiority of Psa-AR in prostate cancer, we established subcutaneous xenograft tumor models using AR-mutant 22Rv1 cells.[51] All procedures strictly complied with the Guide for the Care and Use of Laboratory Animals and were approved by the Committee for Animal Research of the National Center for Nanoscience and Technology. When the tumor volume reached ~100 mm³, 22Rv1-bearing mice were randomized into three groups (n = 6/group): the PBS control, Psa-AR, and P-AR groups. Treatments were administered via tail vein injection every other day for five cycles. The tumor volume and body weight were monitored every other day for 20 days (Fig. 6a). […] The individual tumor growth curves for each group are presented in Supplementary Fig. 20. No obvious body weight loss was observed during treatment (Fig. 6c). […] To elucidate the mechanistic basis of tumor suppression, we quantitatively assessed AR and HSP90 protein expression in excised tumor tissues through IF. […] This dual-target degradation profile directly correlates with the observed therapeutic efficacy, validating the assembly driven target engagement and degradation strategy. […] To address the critical limitations of conventional PROTACs, particularly the Hook effect-induced nonlinear pharmacokinetics and narrow therapeutic window. We rigorously evaluated the dose-responsive antitumor efficacy of Psa-AR in 22Rv1 xenograft models. Mice bearing subcutaneous tumors received escalating doses (10, 20, or 30 mg/kg) via intravenous administration every 48 h for five consecutive treatment cycles. The tumor volume and body weight were evaluated for 20 days. Tumor volume was suppressed in a dose-dependent manner, with a mean tumor volume of […], a mean tumor volume of 536 mm^3 at 20 mg/kg and a mean tumor volume of 220 mm^3 at 10 mg/kg (Fig. 6h). The individual tumor growth curves for each group are presented in Supplementary Fig. 21. […] IF analysis of tumor sections provided spatially resolved dose-dependent quantification of AR and HSP90 proteolysis. […] Collectively, the dose-dependent tumor suppression and coordinated target proteolysis observed in the 22Rv1 xenograft model mechanistically validated the therapeutic superiority of in situ self-assembled Psa-AR. To systematically evaluate the therapeutic advantages of the dual-protein targeting strategy of Psa-AR through simultaneous degradation of AR and HSP90 in overcoming tumor drug resistance, this study compared the antitumor efficacy of Psa-AR with that of current clinical regimens (including the AR inhibitor enzalutamide, the HSP90 inhibitor pimitespib, and their combination) in 22Rv1 xenograft models (Fig. 7a). The experimental protocol was designed as follows: When the tumor volume reached ~100 mm³, the tumor-bearing mice were
Fig. 6 In vivo antitumor efficacy of Psa-AR. a Schematic illustration of the tumor inoculation and treatment protocol for 22Rv1 xenograft mice. (n = 6 per group) b Observation of the tumor inhibitory effect on 22Rv1 xenograft mice in PBS, P-AR, or Psa-AR (20 mg/kg in 200 μL of PBS) over 20 days of treatment. c Body weight changes in 22Rv1 xenograft mice in different treatment groups over 20 days. d Kaplan‒Meier survival curves of 22Rv1 xenograft mice in different groups over 20 days of treatment. e Immunofluorescence analysis of AR protein levels in 22Rv1 tumor tissues after treatment with PBS, P-AR, or Psa-AR (20 mg/kg in 200 μL of PBS) for 20 days. Scale bar: 20 μm. f Immunofluorescence analysis of the HSP90 protein levels in 22Rv1 tumor tissues after treatment with PBS, P-AR, or Psa-AR (20 mg/kg in 200 μL of PBS) for 20 days. Scale bar: 20 μm. g Terminal deoxynucleotidyl transferase (TdT) dUTP nick-end labeling (TUNEL) staining of tumors after treatment with PBS, P-AR, or Psa-AR (20 mg/kg in 200 μL of PBS) for 20 days. […]

In the case of `CNC(=O)c1ccc(N2C(=S)N(c3ccc(C#N)c(C(F)(F)F)c3)C(=O)C2(C)C)cc1F` [enzalutamide, reference compound], the tumor volume is 765 mm^3 and the median survival stood at 27 days.
For `CCc1cc(C(N)=O)ccc1-n1nc(C(C)C)c2c(-n3cnc(-c4cnn(C)c4)c3)ccnc21` [pimitespib, reference compound], in that order: 742 mm^3 and 29 days.
